# Experimental data as given in US4652575A, “2-(ethylene-thio methyl furanyl)amino thiazole derivatives having acid secretion inhibiting activity” (Medosan Industrie Biochimiche Riunite S.p.A., priority 1984, dated 1987).
# Like-named read-outs stand apart in the source and are kept apart here.
# Experiments:
# [1] = test system: gastric secretion; test: Activity on gastric secretion "in vivo" (volume and total acidity of gastric juice after pylorus tieing, Shay); set-up: species or system male Wistar rats; conditions: for Total acidity gastric juice secretion / Volume gastric juice secretion / change in vivo at 20 mg/kg: 20 mg/kg oral; for change in vivo at 20 mg/kg / ED50: Rattus norvegicus, po; for ED50: per os, 1 hour before pilorus tieing, read-out: DE50 in rat calculated on total acidity (mEq/4 hours); for ability to reduce the gastric acid secretion (in words): volume and total acidity of gastric juice
# Procedure: (§1) The preparations were a solution of the substances in 2.5% citric acid for the "in vitro" test and 5% citric acid for the "in vivo" test respectively. Citric acid was diluted in normal physiologic saline at neutral pH.
# The ability of the compounds according to the present invention to inhibit the gastric secretion was studied "in vivo" both by evaluating the volume reduction of gastric juice, and by measuring the total acidity of same after administration of the substances under test according to the Takeda method (see the aforementioned literature).
# To this end, tests have been made on male Wistar rats of an average weight of 200 g. The animals, 10 for each substance, were placed into individual cages provided with ground grating in order to avoid coprophagy, without food but with free access to water for 24 hours before test. […] Four hours later the animals were sacrificed and the gastric juice was collected, of which the volume expressed in ml and the total acidity expressed in mEq was measured. The gastric juice ([…] ) was titrated with 0.1N NaOH to pH 7 to determine the acid concentration. The total acidity was then calculated as the product of the total volume of gastric juice by the acid concentration.
# [2] = target: T1, histamine H2 receptors (Cavia porcellus, UniProt P47747); test: Antagonistic activity to the histamine H2 receptors "in vitro" on insulated atrium auricolas of Guinea pig heart; conditions: for inhibition at 10 µM / inhibition at 1 µM / inhibition at 0.1 µM / inhibition at 0.01 µM: guinea pig, 0.5 h, read-out: Antagonizing activity to histamine H2 receptors; for inhibition at 10 µM: compound 1·10^-5 M/L; for inhibition at 1 µM: compound 1·10^-6 M/L; for inhibition at 0.1 µM: compound 1·10^-7 M/L; for antagonistic action to the histamine H2 receptors (in words): in vitro; for inhibition at 0.01 µM: compound 1·10^-8 M/L
# T1 construct: tests on insulated atrium auricolas of Guinea pig heart; from tissue; host or cells: isolated guinea pig heart atrium
# Procedure: as §1
# This activity was evaluated "in vitro" by carrying out tests on insulated atrium auricolas of Guinea pig heart. […] Metering was carried out by placing the preparation into a vessel containing a Ringer-Locke solution wherein pure oxygen was bubbling, at a temperature of 37° C. A response of the organ "in vitro" was first established at cumulative histamine doses of 2.5.10^-7, 5.10^-7, 10^-6, 5.10^-6, 10^-5 M/L. After obtaining two constant lines with histamine at a time interval of one hour from one another, the substances under test were added to the bath and after a 30 minutes contact with the preparation, a new histamine response line in the presence of the substance under test was drawn. The activity was tested at various concentrations of the new compounds (10^-5, 10^-6, 10^-7 and in one case 10^-8 M/L).
# [3] = in vivo; conditions: po; for LD50 at 360 h: mouse; for LD50: rat
# Excerpt: The animals were kept under observation by checking mortality and possible pain signs for 15 days from start of test.
# [4] = 6 hours before pilorus tieing, read-out: Total acidity gastric juice secretion, Variation %
# [5] = 6 hours before pilorus tieing, read-out: Volume gastric juice secretion, Variation %
# [6] = 12 hours before pilorus tieing, read-out: Total acidity gastric juice secretion, Variation %
# [7] = 12 hours before pilorus tieing, read-out: Volume gastric juice secretion, Variation %
# [8] = 24 hours before pilorus tieing, read-out: Total acidity gastric juice secretion, Variation %
# [9] = 24 hours before pilorus tieing, read-out: Volume gastric juice secretion, Variation %
# [10] = 36 hours before pilorus tieing, read-out: Total acidity gastric juice secretion, Variation %
# [11] = 36 hours before pilorus tieing, read-out: Volume gastric juice secretion, Variation %
# T1 sequence (P47747 whole entry): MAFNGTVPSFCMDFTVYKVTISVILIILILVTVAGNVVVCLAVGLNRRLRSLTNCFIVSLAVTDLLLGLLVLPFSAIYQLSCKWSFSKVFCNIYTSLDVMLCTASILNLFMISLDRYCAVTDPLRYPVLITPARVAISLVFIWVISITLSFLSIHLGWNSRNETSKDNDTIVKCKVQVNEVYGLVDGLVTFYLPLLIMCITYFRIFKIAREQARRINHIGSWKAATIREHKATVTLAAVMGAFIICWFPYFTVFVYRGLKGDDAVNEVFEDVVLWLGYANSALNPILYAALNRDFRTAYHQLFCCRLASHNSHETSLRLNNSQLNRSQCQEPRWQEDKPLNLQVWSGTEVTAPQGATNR
compound,measurement,setting,value
"CN(C)Cc1ccc(CSCCNc2nc(-c3ccccc3)cs2)o1 [Example No. 3, 2-(2-(((5-(dimethylamino)methyl-2-furanyl)methyl)thio)ethyl)-amino-4-phenylthiazole]",Total acidity gastric juice secretion,[1]; 6 hours before pilorus tieing,"0,07 mEq/4 hours"
same,Volume gastric juice secretion,[1]; 6 hours before pilorus tieing,"4,0 ml/4 hours"
same,Total acidity gastric juice secretion,[1]; 12 hours before pilorus tieing,"0,10 mEq/4 hours"
same,Volume gastric juice secretion,[1]; 12 hours before pilorus tieing,"4,1 ml/4 hours"
same,Total acidity gastric juice secretion,[1]; 24 hours before pilorus tieing,"0,12 mEq/4 hours"
same,Volume gastric juice secretion,[1]; 24 hours before pilorus tieing,"4,8 ml/4 hours"
same,Total acidity gastric juice secretion,[1]; 36 hours before pilorus tieing,"0,15 mEq/4 hours"
same,Volume gastric juice secretion,[1]; 36 hours before pilorus tieing,"5,0 ml/4 hours"
same,change in vivo at 20 mg/kg,[1]; [4],-59%
same,change in vivo at 20 mg/kg,[1]; [5],-24%
same,change in vivo at 20 mg/kg,[1]; [6],-33%
same,change in vivo at 20 mg/kg,[1]; [7],-20%
same,change in vivo at 20 mg/kg,[1]; [8],-29%
same,change in vivo at 20 mg/kg,[1]; [9],-14%
same,change in vivo at 20 mg/kg,[1]; [10],-6%
same,change in vivo at 20 mg/kg,[1]; [11],-11%
same,ED50,[1],2.2 mg/kg
same,ability to reduce the gastric acid secretion (in words),[1],interesting ability
same,inhibition at 10 µM,[2]; histamine 1·10^-5 M/L,95%
same,inhibition at 10 µM,[2]; histamine 1·10^-6 M/L,100%
same,inhibition at 10 µM,"[2]; histamine 2,5·10^-7 M/L",100%
same,inhibition at 10 µM,[2]; histamine 5·10^-6 M/L,100%
same,inhibition at 10 µM,[2]; histamine 5·10^-7 M/L,100%
same,inhibition at 1 µM,[2]; histamine 1·10^-5 M/L,52%
same,inhibition at 1 µM,[2]; histamine 1·10^-6 M/L,85%
same,inhibition at 1 µM,"[2]; histamine 2,5·10^-7 M/L",100%
same,inhibition at 1 µM,[2]; histamine 5·10^-6 M/L,70%
same,inhibition at 1 µM,[2]; histamine 5·10^-7 M/L,100%
same,inhibition at 0.1 µM,[2]; histamine 1·10^-5 M/L,20%
same,inhibition at 0.1 µM,[2]; histamine 1·10^-6 M/L,50%
same,inhibition at 0.1 µM,"[2]; histamine 2,5·10^-7 M/L",85%
same,inhibition at 0.1 µM,[2]; histamine 5·10^-6 M/L,30%
same,inhibition at 0.1 µM,[2]; histamine 5·10^-7 M/L,70%
same,antagonistic action to the histamine H2 receptors (in words),[2],interesting ability
same,LD50 at 360 h,[3],550 mg/kg
same,LD50,[3],900 mg/kg
"CN(C)Cc1ccc(CSCCNC(=S)NC(=O)c2ccccc2)o1 [Example No. 1, N-benzoyl-N'-(2-(((5-(dimethylamino)methyl-2-furanyl)methyl)-thio)ethyl)-thiourea]",Total acidity gastric juice secretion,[1]; 6 hours before pilorus tieing,"0,08 mEq/4 hours"
same,Volume gastric juice secretion,[1]; 6 hours before pilorus tieing,"4,1 ml/4 hours"
same,Total acidity gastric juice secretion,[1]; 12 hours before pilorus tieing,"0,09 mEq/4 hours"
same,Volume gastric juice secretion,[1]; 12 hours before pilorus tieing,"4,0 ml/4 hours"
same,Total acidity gastric juice secretion,[1]; 24 hours before pilorus tieing,"0,13 mEq/4 hours"
same,Volume gastric juice secretion,[1]; 24 hours before pilorus tieing,"5,0 ml/4 hours"
same,Total acidity gastric juice secretion,[1]; 36 hours before pilorus tieing,"0,14 mEq/4 hours"
same,Volume gastric juice secretion,[1]; 36 hours before pilorus tieing,"5,2 ml/4 hours"
same,change in vivo at 20 mg/kg,[1]; [4],-53%
same,change in vivo at 20 mg/kg,[1]; [5],-23%
same,change in vivo at 20 mg/kg,[1]; [6],-40%
same,change in vivo at 20 mg/kg,[1]; [7],-21%
same,change in vivo at 20 mg/kg,[1]; [8],-23%
same,change in vivo at 20 mg/kg,[1]; [9],-11%
same,change in vivo at 20 mg/kg,[1]; [10],-12%
same,change in vivo at 20 mg/kg,[1]; [11],-7%
same,ED50,[1],3.4 mg/kg
same,ability to reduce the gastric acid secretion (in words),[1],interesting ability
same,inhibition at 10 µM,[2]; histamine 1·10^-5 M/L,100%
same,inhibition at 10 µM,[2]; histamine 1·10^-6 M/L,100%
same,inhibition at 10 µM,"[2]; histamine 2,5·10^-7 M/L",100%
same,inhibition at 10 µM,[2]; histamine 5·10^-6 M/L,100%
same,inhibition at 10 µM,[2]; histamine 5·10^-7 M/L,100%
same,inhibition at 1 µM,[2]; histamine 1·10^-5 M/L,50%
same,inhibition at 1 µM,[2]; histamine 1·10^-6 M/L,80%
same,inhibition at 1 µM,"[2]; histamine 2,5·10^-7 M/L",100%
same,inhibition at 1 µM,[2]; histamine 5·10^-6 M/L,60%
same,inhibition at 1 µM,[2]; histamine 5·10^-7 M/L,90%
same,inhibition at 0.1 µM,[2]; histamine 1·10^-5 M/L,20%
same,inhibition at 0.1 µM,[2]; histamine 1·10^-6 M/L,65%
same,inhibition at 0.1 µM,"[2]; histamine 2,5·10^-7 M/L",90%
same,inhibition at 0.1 µM,[2]; histamine 5·10^-6 M/L,35%
same,inhibition at 0.1 µM,[2]; histamine 5·10^-7 M/L,85%
same,antagonistic action to the histamine H2 receptors (in words),[2],interesting ability
same,LD50 at 360 h,[3],750 mg/kg
same,LD50,[3],1000 mg/kg
"CN(C)Cc1ccc(CSCCNc2nc(-c3ccc4ccccc4c3)cs2)o1 [Example No. 6, 2-(2-(((5-(dimethylamino)methyl-2-furanyl)methyl)thio)ethyl)-amino-4-(2-naphthyl)-thiazole]",Total acidity gastric juice secretion,[1]; 6 hours before pilorus tieing,"0,05 mEq/4 hours"
same,Volume gastric juice secretion,[1]; 6 hours before pilorus tieing,"3,0 ml/4 hours"
same,Total acidity gastric juice secretion,[1]; 12 hours before pilorus tieing,"0,04 mEq/4 hours"
same,Volume gastric juice secretion,[1]; 12 hours before pilorus tieing,"2,9 ml/4 hours"
same,Total acidity gastric juice secretion,[1]; 24 hours before pilorus tieing,"0,12 mEq/4 hours"
same,Volume gastric juice secretion,[1]; 24 hours before pilorus tieing,"4,5 ml/4 hours"
same,Total acidity gastric juice secretion,[1]; 36 hours before pilorus tieing,"0,12 mEq/4 hours"
same,Volume gastric juice secretion,[1]; 36 hours before pilorus tieing,"5,0 ml/4 hours"
same,change in vivo at 20 mg/kg,[1]; [4],-70%
same,change in vivo at 20 mg/kg,[1]; [5],-43%
same,change in vivo at 20 mg/kg,[1]; [6],-73%
same,change in vivo at 20 mg/kg,[1]; [7],-37%
same,change in vivo at 20 mg/kg,[1]; [8],-29%
same,change in vivo at 20 mg/kg,[1]; [9],-20%
same,change in vivo at 20 mg/kg,[1]; [10],-25%
same,change in vivo at 20 mg/kg,[1]; [11],-11%
same,ED50,[1],1.8 mg/kg
same,ability to reduce the gastric acid secretion (in words),[1],interesting ability
same,inhibition at 10 µM,[2]; histamine 1·10^-5 M/L,90%
same,inhibition at 10 µM,[2]; histamine 1·10^-6 M/L,100%
same,inhibition at 10 µM,"[2]; histamine 2,5·10^-7 M/L",100%
same,inhibition at 10 µM,[2]; histamine 5·10^-6 M/L,90%
same,inhibition at 10 µM,[2]; histamine 5·10^-7 M/L,100%
same,inhibition at 1 µM,[2]; histamine 1·10^-5 M/L,40%
same,inhibition at 1 µM,[2]; histamine 1·10^-6 M/L,90%
same,inhibition at 1 µM,"[2]; histamine 2,5·10^-7 M/L",100%
same,inhibition at 1 µM,[2]; histamine 5·10^-6 M/L,70%
same,inhibition at 1 µM,[2]; histamine 5·10^-7 M/L,100%
same,inhibition at 0.1 µM,[2]; histamine 1·10^-5 M/L,35%
same,inhibition at 0.1 µM,[2]; histamine 1·10^-6 M/L,70%
same,inhibition at 0.1 µM,"[2]; histamine 2,5·10^-7 M/L",95%
same,inhibition at 0.1 µM,[2]; histamine 5·10^-6 M/L,50%
same,inhibition at 0.1 µM,[2]; histamine 5·10^-7 M/L,95%
same,inhibition at 0.01 µM,[2]; histamine 1·10^-5 M/L,15%
same,inhibition at 0.01 µM,[2]; histamine 1·10^-6 M/L,70%
same,inhibition at 0.01 µM,"[2]; histamine 2,5·10^-7 M/L",95%
same,inhibition at 0.01 µM,[2]; histamine 5·10^-6 M/L,50%
same,inhibition at 0.01 µM,[2]; histamine 5·10^-7 M/L,85%
same,antagonistic action to the histamine H2 receptors (in words),[2],interesting ability
same,LD50 at 360 h,[3],2100 mg/kg
same,LD50,[3],2800 mg/kg
